Experimental data taken from patent publication US20180370927A1, “MICROBIOCIDAL OXADIAZOLE DERIVATIVES” (SYNGENTA PARTICIPATIONS AG, priority 2015, published 2018).

Tests used:
[1] = system: Phakopsora pachyrhizi; assay: Phakopsora pachyrhizi / soybean / leaf disc preventative (Asian soybean rust); format: in vivo; conditions: foliar, 200 ppm in the applied formulation, soybean leaf disks, assessed 12 to 14 days after application, read-out: disease control compared to untreated control leaf disks
Protocol: (§1) Leaf disks or leaf segments of various plant species are cut from plants grown in a greenhouse. The cut leaf disks or segments are placed in multiwell plates (24-well format) onto water agar. The leaf disks are sprayed with a test solution before (preventative) or after (curative) inoculation. Compounds to be tested are prepared as DMSO solutions (max. 10 mg/mL) which are diluted to the appropriate concentration with 0.025% Tween20 just before spraying. The inoculated leaf disks or segments are incubated under defined conditions (temperature, relative humidity, light, etc.) according to the respective test system. A single evaluation of disease level is carried out 3 to 14 days after inoculation, depending on the pathosystem. Percent disease control relative to the untreated check leaf disks or segments is then calculated.
Example 3: Fungicidal Activity Against Phakopsora pachyrhizi/Soybean/Leaf Disc Preventative (Asian Soybean Rust)
Soybean leaf disks are placed on water agar in multiwell plates (24-well format) and sprayed with the formulated test compound diluted in water. One day after application leaf discs are inoculated by spraying a spore suspension on the lower leaf surface. After an incubation period in a climate cabinet of 24-36 hours in darkness at 20° C. and 75% relative humidity leaf disc are kept at 20° C. with 12 hours light/day and 75% relative humidity. The activity of a compound is assessed as percent disease control compared to untreated when an appropriate level of disease damage appears in untreated check leaf disks (12 to 14 days after application).
(§2) The following compounds at 200 ppm in the applied formulation give at least 80% disease control in this test when compared to untreated control leaf disks under the same conditions, which show extensive disease development.

[2] = system: Glomerella lacenarium (Colletotrichum lacenarium); assay: Glomerella lacenarium (Colletotrichum lacenarium) liquid culture / cucumber / preventative (anthracnose); format: cell-based; conditions: 20 ppm in the applied formulation, liquid culture in PDB, 24° C., 3 to 4 days after application, read-out: disease control (inhibition of growth, photometric) compared to untreated control
Procedure, shortened: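 At 20 ppm in the applied formulation, compounds were mixed with fungal spores in potato dextrose broth and held at 24° C. After 3–4 days, photometric growth measurement gave percent antifungal activity relative to untreated control.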

[3] = system: Puccinia recondita f. Sp. Tritici; assay: Puccinia recondita f. sp. tritici / wheat / leaf disc preventative (brown rust); format: in vivo; conditions: foliar, 200 ppm in the applied formulation, wheat leaf segments, preventative, assessed 7 to 9 days after application, read-out: disease control compared to untreated control leaf disks
Procedure, shortened: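 Wheat cv. Kanzler leaf segments on agar sprayed with formulated compound in water, inoculated with rust spores 1 day later. Incubated at 19° C, 75% rh, 12 h light/12 h dark; percent disease control versus untreated scored 7 to 9 days after application; tested at 200 ppm.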

[4] = system: Puccinia recondita f. Sp. Tritici; assay: Puccinia recondita f. sp. tritici / wheat / leaf disc curative (brown rust); format: in vivo; conditions: foliar, 200 ppm in the applied formulation, wheat leaf segments, curative (applied 1 day after inoculation), assessed 6 to 8 days after application, read-out: disease control compared to untreated control leaf disks
Protocol: as §1
Example 2: Fungicidal Activity Against Puccinia recondita f. Sp. Tritici/Wheat/Leaf Disc Curative (Brown Rust)
Wheat leaf segments cv. Kanzler are placed on agar in multiwell plates (24-well format). The leaf segments are then inoculated with a spore suspension of the fungus. Plates were stored in darkness at 19° C. and 75% relative humidity. The formulated test compound diluted in water was applied 1 day after inoculation. The leaf segments were incubated at 19° C. and 75% relative humidity under a light regime of 12 hours light/12 hours darkness in a climate cabinet and the activity of a compound was assessed as percent disease control compared to untreated when an appropriate level of disease damage appears in untreated check leaf segments (6 to 8 days after application).
as §2

| SMILES | pest or weed control at 200 ppm [1] | inhibition at 20 ppm [2] | pest or weed control at 200 ppm [3] | pest or weed control at 200 ppm [4] |
| --- | --- | --- | --- | --- |
| O=C(NCc1ccc(-c2noc(C(F)(F)F)n2)cc1Cl)C(=O)c1ccccc1 [Compound 1.59, N-[[2-chloro-4-[5-(trifluoromethyl)-1,2,4-oxadiazol-3-yl]phenyl]methyl]-2-oxo-2-phenyl-acetamide] | ≥ 80% | ≥ 80% | ≥ 80% |  |
| O=C(NCc1c(F)cc(-c2noc(C(F)(F)F)n2)cc1F)C(=O)c1ccccc1 [Compound 1.68, N-[[2,6-difluoro-4-[5-(trifluoromethyl)-1,2,4-oxadiazol-3-yl]phenyl]methyl]-2-oxo-2-phenyl-acetamide] | ≥ 80% | ≥ 80% | ≥ 80% |  |
| O=C(NCc1ccc(-c2noc(C(F)(F)F)n2)c(F)c1F)C(=O)c1ccccc1 [Compound 1.46, N-[[2,3-difluoro-4-[5-(trifluoromethyl)-1,2,4-oxadiazol-3-yl]phenyl]methyl]-2-oxo-2-phenyl-acetamide] | ≥ 80% | ≥ 80% | ≥ 80% |  |
| CON(Cc1ccc(-c2noc(C(F)(F)F)n2)cc1F)C(=O)C(=O)c1cccs1 [Compound 1.56, N-[[2-fluoro-4-[5-(trifluoromethyl)-1,2,4-oxadiazol-3-yl]phenyl]methyl]-N-methoxy-2-oxo-2-(2-thienyl)acetamide] | ≥ 80% | ≥ 80% | ≥ 80% |  |
| Cc1cc(-c2noc(C(F)(F)F)n2)ccc1CNC(=O)C(=O)c1cccs1 [Compound 1.66, N-[[2-methyl-4-[5-(trifluoromethyl)-1,2,4-oxadiazol-3-yl]phenyl]methyl]-2-oxo-2-(2-thienyl)acetamide] | ≥ 80% |  | ≥ 80% |  |
| CON(Cc1ccc(-c2noc(C(F)(F)F)n2)cc1)C(=O)C(=O)c1cccs1 [Compound 1.73, N-methoxy-2-oxo-2-(2-thienyl)-N-[[4-[5-(trifluoromethyl)-1,2,4-oxadiazol-3-yl]phenyl]methyl]acetamide] | ≥ 80% | ≥ 80% | ≥ 80% |  |
| O=C(NCc1ccc(-c2noc(C(F)(F)F)n2)cc1Cl)C(=O)c1ccco1 [Compound 1.84, N-[[2-chloro-4-[5-(trifluoromethyl)-1,2,4-oxadiazol-3-yl]phenyl]methyl]-2-(2-furyl)-2-oxo-acetamide] | ≥ 80% | ≥ 80% | ≥ 80% |  |
| CC(C)CC(=O)C(=O)NCc1ccc(-c2noc(C(F)(F)F)n2)cc1Cl [Compound 1.61, N-[[2-chloro-4-[5-(trifluoromethyl)-1,2,4-oxadiazol-3-yl]phenyl]methyl]-4-methyl-2-oxo-pentanamide] | ≥ 80% |  | ≥ 80% |  |
| NC(=O)C(=O)NCc1ccc(-c2noc(C(F)(F)F)n2)c(F)c1F [Compound 4.84, N′-[[2,3-difluoro-4-[5-(trifluoromethyl)-1,2,4-oxadiazol-3-yl]phenyl]methyl] oxamide] | ≥ 80% | ≥ 80% |  |  |
| CCCCON(Cc1ccc(-c2noc(C(F)(F)F)n2)cc1)C(=O)C(=O)CC [Compound 1.30, N-butoxy-2-oxo-N-[[4-[5-(trifluoromethyl)-1,2,4-oxadiazol-3-yl]phenyl]methyl]butanamide] | ≥ 80% | ≥ 80% |  |  |
| CCCC(=O)C(=O)N(Cc1ccc(-c2noc(C(F)(F)F)n2)cc1)CC1CC1 [Compound 1.6, N-(cyclopropyl-methyl)-2-oxo-N-[[4-[5-(trifluoromethyl)-1,2,4-oxadiazol-3-yl]phenyl]methyl]pentanamide] | ≥ 80% | ≥ 80% |  |  |
| CC(C)(C)C(=O)C(=O)NCc1ccc(-c2noc(C(F)(F)F)n2)cc1Cl [Compound 1.63, N-[[2-chloro-4-[5-(trifluoromethyl)-1,2,4-oxadiazol-3-yl]phenyl]methyl]-3,3-dimethyl-2-oxo-butanamide] | ≥ 80% | ≥ 80% | ≥ 80% |  |
| O=C(NCc1ccc(-c2noc(C(F)(F)F)n2)cc1Cl)C(=O)c1cccs1 [Compound 1.62, N-[[2-chloro-4-[5-(trifluoromethyl)-1,2,4-oxadiazol-3-yl]phenyl]methyl]-2-oxo-2-(2-thienyl)acetamide] | ≥ 80% | ≥ 80% | ≥ 80% |  |
| CON(Cc1ccc(-c2noc(C(F)(F)F)n2)cc1F)C(=O)C(=O)c1ccccc1 [Compound 1.54, N-[[2-fluoro-4-[5-(trifluoromethyl)-1,2,4-oxadiazol-3-yl]phenyl]methyl]-N-methoxy-2-oxo-2-phenyl-acetamide] | ≥ 80% | ≥ 80% | ≥ 80% |  |
| CON(Cc1ccc(-c2noc(C(F)(F)F)n2)cc1F)C(=O)C(=O)C(C)(C)C [Compound 1.57, N-[[2-fluoro-4-[5-(trifluoromethyl)-1,2,4-oxadiazol-3-yl]phenyl]methyl]-N-methoxy-3,3-dimethyl-2-oxo-butanamide] | ≥ 80% | ≥ 80% | ≥ 80% |  |
| NC(=O)C(=O)NCCc1ccc(-c2noc(C(F)(F)F)n2)cc1 [Compound 4.85, N′-[2-[4-[5-(trifluoromethyl)-1,2,4-oxadiazol-3-yl]phenyl]ethyl] oxamide] | ≥ 80% | ≥ 80% |  |  |
| CCC(=O)C(=O)N(C)c1ccc(-c2noc(C(F)(F)F)n2)cc1 [Compound 1.34, N-methyl-2-oxo-[4-[5-(trifluoromethyl)-1,2,4-oxadiazol-3-yl]phenyl]butanamide] | ≥ 80% |  |  |  |
| O=C(NCC1COCCO1)C(=O)Nc1ccc(-c2noc(C(F)(F)F)n2)cc1 (centres unmarked) [Compound 4.19, N-(1,4-dioxan-2-ylmethyl)-N′-[4-[5-(trifluoromethyl)-1,2,4-oxadiazol-3-yl]phenyl]oxamide] | ≥ 80% |  | ≥ 80% |  |
| Cc1cc(-c2noc(C(F)(F)F)n2)ccc1CNC(=O)C(=O)c1ccco1 [Compound 1.86] | ≥ 80% |  | ≥ 80% |  |
| Cc1cc(-c2noc(C(F)(F)F)n2)ccc1CNC(=O)C(=O)C(C)(C)C [Compound 1.67, 3,3-dimethyl-N-[[2-methyl-4-[5-(trifluoromethyl)-1,2,4-oxadiazol-3-yl]phenyl]methyl]-2-oxo-butanamide] | ≥ 80% | ≥ 80% |  |  |
| CCOC(=O)C(=O)N(Cc1ccc(-c2noc(C(F)(F)F)n2)cc1)OC [Compound 3.10, ethyl 2-[methoxy-[[4-[5-(trifluoromethyl)-1,2,4-oxadiazol-3-yl]phenyl]methyl]amino]-2-oxo-acetate] |  | ≥ 80% | ≥ 80% | ≥ 80% |
| Cc1cc(-c2noc(C(F)(F)F)n2)ccc1CNC(=O)C(=O)c1ccccc1 [Compound 1.65, N-[[2-methyl-4-[5-(trifluoromethyl)-1,2,4-oxadiazol-3-yl]phenyl]methyl]-2-oxo-2-phenyl-acetamide] | ≥ 80% |  | ≥ 80% |  |
| CCNC(=O)C(=O)N(Cc1ccc(-c2noc(C(F)(F)F)n2)cc1)OC [Compound 4.66, N-ethyl-N′-methoxy-N′-[[4-[5-(trifluoromethyl)-1,2,4-oxadiazol-3-yl]phenyl]methyl] oxamide] |  | ≥ 80% | ≥ 80% | ≥ 80% |
| O=C(NCc1ccc(-c2noc(C(F)(F)F)n2)c(F)c1F)C(=O)c1ccco1 [Compound 1.81, N-[[2,3-difluoro-4-[5-(trifluoromethyl)-1,2,4-oxadiazol-3-yl]phenyl]methyl]-2-(2-furyl)-2-oxo-acetamide] | ≥ 80% | ≥ 80% |  |  |
